The values that follow come from PMC6817880, “Biochemical and Structural Insights Concerning Triclosan Resistance in a Novel YX7K Type Enoyl-Acyl Carrier Protein Reductase from Soil Metagenome” (Scientific Reports, 2019).

This assay deals with T1, FabI2 ENR (metagenomic YX7K type enoyl-acyl carrier protein reductase).
T1 construct: fabI2 gene in pET-30b(+) (BamHI/SalI), vector pAF1-5; His-tag fusion protein from E. coli BL21(DE3), tag cleavage not mentioned
Put plainly: spectrophotometric NADH oxidation at […] nm, Michaelis-Menten fit. The class given is biochemical, uncultured bacterium. Conditions: 100 nM enzyme, 100 mM sodium phosphate pH 7.0, 25 °C.

For `NC(=O)C1=CN([C@@H]2O[C@H](COP(=O)(O)OP(=O)(O)OC[C@H]3O[C@@H](n4cnc5c(N)ncnc54)[C@H](O)[C@@H]3O)[C@@H](O)[C@H]2O)C=CC1` [NADH], for the setting “60 µM crotonyl-CoA”, the Km was found to be 18.2 µM.
Regarding `C/C=C/C(=O)SCCNC(=O)CCNC(=O)[C@H](O)C(C)(C)COP(=O)(O)OP(=O)(O)OC[C@H]1O[C@@H](n2cnc3c(N)ncnc32)[C@H](O)[C@@H]1OP(=O)(O)O` [crotonyl-CoA], where the note is “200 µM NADH”, the Km is 13.8 µM.
